Data: paper PMC11752117 (Journal of Traditional and Complementary Medicine, 2024)
Where two headings read alike, the source gives them in different places.

Conditions: for concentration in plasma (molar) / concentration in plasma / concentration in lung tissue: 4 h after administration, respective extract 1000 mg/kg p.o.; for concentration in plasma / concentration in lung tissue: mean ± SD; for calculated concentration in lung tissue (molar): on the basis of lung water content approximately 80 % by weight
[1] = Day 1, infected hamsters, n = 4

Row | SMILES | concentration in plasma (molar) (Day 1) | concentration in plasma [1] | concentration in lung tissue (Day 1) | calculated concentration in lung tissue (molar) (Day 1) | concentration in plasma (molar) (Day 3) | concentration in lung tissue (Day 3) | concentration in plasma (Day 3) | calculated concentration in lung tissue (molar) (Day 3) | concentration in plasma (molar) (Day 7) | concentration in lung tissue (Day 7) | concentration in plasma (Day 7) | calculated concentration in lung tissue (molar) (Day 7) | average concentrations in lung tissue (range over sampling days, respective extract 1000 mg/kg/day p.o.)
1 | C=C1CC[C@@H]2[C@](C)(CO)[C@H](O)CC[C@@]2(C)[C@@H]1C/C=C1/C(=O)OC[C@H]1O [Andrographolide, andrographolide] | ~5.48 µM | 1921.3 ± 508.4 ng/mL | 0.750 ± 0.206 µg/g | 1.72 µM | ~5.51 µM | 0.800 ± 0.144 µg/g | 1930.1 ± 257.7 ng/mL | 1.83 µM | ~8.01 µM | 0.850 ± 0.181 µg/g | 2808.1 ± 547.4 ng/mL | ~1.94 µM | 
2 | COc1cc(O)c(C(=O)[C@@H]2[C@H](CC=C(C)C)C(C)=CC[C@H]2c2ccccc2)c(O)c1 [Panduratin A, panduratin A] | ~4.21 µM | 1710.4 ± 284.3 ng/mL | 0.186 ± 0.015 µg/g | 0.37 µM | ~7.27 µM | 0.262 ± 0.047 µg/g | 2954.1 ± 582.1 ng/mL | 0.52 µM |  |  |  |  | 0.19 to 0.26 µg/g
